This note sets out measurements from patent publication US9145354B2, “Pharmaceutical compounds” (priority 2011, dated 2015).

This assay concerns the target full length NS3/4a (Hepatitis C virus genotype 1b (isolate BK) (HCV), UniProt P26663). The assay is described as follows: NS3 Protease Assay (Example A), FRET-based. It counts as biochemical. A digest of the protocol: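 Full-length NS3/4a, made in-house, with an NS4A/B-derived peptide substrate carrying QXL520 quencher and 5-FAMsp fluorophore. Buffer 50 mM Tris pH8, 20 mM DTT, 1% CHAPS, 10% glycerol, 5% DMSO. Fluorescence followed 30 min at room temperature; IC50 from initial rates of replicate curves.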

Setting [1] is: stated as IC50 less than 30 μM or at least 40% inhibition at a concentration of 100 μM, read-out: IC50 against the protease activity of the full length NS3/4a.
The mark [2] stands for this setting: HCV NS3 protease assay, full length NS3/4a, read-out: Assay A IC50 (μM) average.
Setting [3] is: read-out: IC50 against the protease activity of the full length NS3/4a.

Structures are written as SMILES. Structures can show the parent of a compound that is named as a salt. Where two headings read alike, the source gives them in different places. Some results are limits rather than exact numbers.

Chain of full length NS3/4a (P26663 1027-1657): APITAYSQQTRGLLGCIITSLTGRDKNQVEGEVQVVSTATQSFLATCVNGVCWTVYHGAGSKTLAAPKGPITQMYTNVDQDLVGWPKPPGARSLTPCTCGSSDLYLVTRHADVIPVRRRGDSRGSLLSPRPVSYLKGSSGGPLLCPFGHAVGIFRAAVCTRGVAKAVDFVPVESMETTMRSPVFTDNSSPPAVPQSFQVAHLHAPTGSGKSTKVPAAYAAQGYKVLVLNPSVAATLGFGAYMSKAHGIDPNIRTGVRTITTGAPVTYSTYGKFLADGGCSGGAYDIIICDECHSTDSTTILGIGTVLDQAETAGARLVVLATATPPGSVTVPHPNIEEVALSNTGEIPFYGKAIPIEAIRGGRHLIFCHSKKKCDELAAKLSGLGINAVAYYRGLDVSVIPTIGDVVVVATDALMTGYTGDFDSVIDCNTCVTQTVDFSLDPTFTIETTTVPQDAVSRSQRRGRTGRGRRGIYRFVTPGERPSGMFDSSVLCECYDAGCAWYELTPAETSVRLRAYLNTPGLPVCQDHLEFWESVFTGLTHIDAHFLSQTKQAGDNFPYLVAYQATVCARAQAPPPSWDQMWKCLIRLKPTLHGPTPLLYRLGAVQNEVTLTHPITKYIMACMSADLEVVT

A word on the inhibition: it is the change of the read-out against control, counted positive when it falls. Read a high inhibition as a response far below the control. `CCC(NC1CCCC1C(N)=O)c1ccc(Cl)c(C(=O)c2ccc(N)nc2)c1F` (single isomer, unassigned) [Example 161, 2-{[1-{3-[(6-aminopyridin-3-yl)carbonyl]-4-chloro-2-fluorophenyl}propyl]amino} cyclopentane-1-carboxamide] registered an inhibition at 10 µM of 60%. The IC50 under setting [1] is below 30 µM.

For `N[C@@H](c1ccc(Cl)c(C(=O)c2ccc(CO)cc2)c1F)C1CC1` [Example 68, [4-({3-[(R)-amino(cyclopropyl)methyl]-6-chloro-2-fluorophenyl}-carbonyl)phenyl]methanol hydrochloride], under setting [2], the IC50 turned out to be 0.21 µM.

With `CC[C@@H](N[C@H](C)CC(N)=O)c1ccc(Cl)c(C(=O)c2cnc(N)cn2)c1F` [Example 135, (3R)-3-{[(1R)-1-{3-[(5-aminopyrazin-2-yl)carbonyl]-4-chloro-2-fluorophenyl}propyl]-amino}butanamide], the IC50 runs as follows: under setting [2], 3.4 µM; under setting [3], 1 to 5 µM.

With `CC[C@@H](N[C@@H](C)CC(N)=O)c1ccc(Cl)c(C(=O)c2ccnc(N)c2)c1F` [Example 205, (3S)-3-{[(1R)-1-{3-[(2-aminopyridin-4-yl)carbonyl]-4-chloro-2-fluorophenyl}propyl]amino} butanamide], under setting [2], the IC50 is 0.19 µM.

As for `CC[C@@H](N[C@H](C)CC(N)=O)c1ccc(Cl)c(C(=O)c2ccc(N)c(C)c2)c1F` [Example 260, (3R)-3-{[(1R)-1-{3-[(4-amino-3-methylphenyl)carbonyl]-4-chloro-2-fluorophenyl}propyl]amino}butanamide], the inhibition at 0.3 µM (@ 0.3 uM) was 39%.

On to `CC[C@@H](N[C@H](C)CC(N)=O)c1ccc(Cl)c(C(=O)c2cccnc2)c1F` [Example 94, (3R)-3-{[(1R)-1-{4-chloro-2-fluoro-3-[(pyridin-3-yl)carbonyl]phenyl}propyl]amino}butanamide], for which the IC50 under setting [2] came out at 1 µM and the IC50 under setting [3] was in the range of 1 to 5 µM.

As to `CC[C@@H](N[C@H](C)CC(N)=O)c1ccc(Cl)c(C(=O)c2cccc(O)c2)c1F` [Example 228, (3R)-3-{[(1R)-1-{4-chloro-2-fluoro-3-[(3-hydroxyphenyl)carbonyl]phenyl}propyl]amino}butanamide], the IC50 runs as follows: under setting [2], 0.73 µM; under setting [3], below 1 µM.

As to `CC[C@@H](N[C@H](C)CC(N)=O)c1ccc(Cl)c(C(=O)c2ccc(N)nc2)c1F` [Example 266, (3R)-3-{[(1R)-1-{3-[(6-aminopyridin-3-yl)carbonyl]-4-chloro-2-fluorophenyl}(2,2,3,3,3-deutero)propyl]amino}butanamide], the IC50 by setting is: under setting [2], 1.1 µM; under setting [3], 1 to 5 µM.

With `CC[C@@H](N)c1ccc(Cl)c(C(=O)c2cccc(O)c2)c1F` [Example 204, 3-({3-[(1R)-1-aminopropyl]-6-chloro-2-fluorophenyl}-carbonyl)phenol], under setting [2], the IC50 stood at 0.17 µM.

Turning to `CC[C@H](NC(=O)CCN)c1ccc(Cl)c(C(=O)c2cccnc2)c1F` [Example 297, 3-amino-N-[(1S)-1-{4-chloro-2-fluoro-3-[(pyridin-3-yl)carbonyl]phenyl}propyl] propanamide], the IC50 runs as follows: under setting [2], 0.15 µM; under setting [3], below 1 µM.

Regarding `CC[C@@H](N)c1ccc(Cl)c(C(=O)c2ccnc(N)c2)c1F` [Example 52, 4-({3-[(1R)-1-aminopropyl]-6-chloro-2-fluorophenyl}carbonyl)pyridin-2-amine], the IC50 reads like this: under setting [2], 0.77 µM; under setting [3], below 1 µM.

Regarding `N[C@@H](c1ccc(Cl)c(C(=O)c2ccncc2)c1F)C1CC1` [Example 33, (R)-{4-chloro-2-fluoro-3-[(pyridin-4-yl)carbonyl]phenyl}(cyclopropyl)methanamine], the IC50 was 0.71 µM under setting [2] and below 1 µM under setting [3].

`CC[C@@H](N)c1ccc(Cl)c(C(=O)c2ccc(=O)[nH]c2)c1F` [Example 38, 5-({3-[(1R)-1-aminopropyl]-6-chloro-2-fluorophenyl}carbonyl)-1,2-dihydropyridin-2-one]: the IC50 under setting [2] stood at 3.6 µM and the IC50 under setting [3] fell in the range of 1 to 5 µM.

Consider `CC[C@H](CC(N)=O)N[C@H](CC)c1ccc(Cl)c(C(=O)c2ccc(N)nc2)c1F` [Example 226, (3R)-3-{[(1R)-1-{3-[(6-aminopyridin-3-yl)carbonyl]-4-chloro-2-fluorophenyl}propyl]amino}pentanamide], for which the IC50 runs as follows: under setting [2], 1.1 µM; under setting [3], 1 to 5 µM.

Take `CC[C@@H](NC[C@@H](C)C(N)=O)c1ccc(Cl)c(C(=O)c2cccnc2)c1F.Cl` [Example 174, 2R)-3-{[(1R)-1-{4-chloro-2-fluoro-3-[(pyridin-3-yl)carbonyl]phenyl}-propyl]amino}-2-methylpropanamide HCl (1:1]: the “Assay A % inhibition average” value was determined as 47% @ 30 uM. The IC50 under setting [1] is below 30 µM.

For `CC[C@H](N[C@H](C)CC(N)=O)c1ccc(Cl)c(C(=O)c2ccccc2)c1F` [Example 85, (3R)-3-{[(1S)-1-(3-benzoyl-4-chloro-2-fluorophenyl)-propyl]-amino}butanamide], the IC50 under setting [2] is 0.061 µM.

As to `C[C@H](CC(N)=O)N[C@@H](c1ccc(Cl)c(C(=O)c2ccc(F)cc2)c1F)C1CC1` [Example 120, (3R)-3-{[(R)-{4-chloro-2-fluoro-3-[(4-fluorophenyl)carbonyl]phenyl}(cyclopropyl)methyl]amino}butanamide], the IC50 reads like this: under setting [2], 1.2 µM; under setting [3], 1 to 5 µM.

As to `CC[C@@H](N[C@H](C)CC(N)=O)c1ccc(Cl)c(C(=O)c2ccc(N)c(Cl)c2)c1F` [Example 244, (3R)-3-{[(1R)-1-{3-[(4-amino-3-chlorophenyl)carbonyl]-4-chloro-2-fluorophenyl}propyl]amino} butanamide], the IC50 under setting [2] amounted to 0.38 µM.

On to `C[C@H](CC(N)=O)N[C@@H](c1ccc(Cl)c(C(=O)c2ccc(N)cn2)c1F)C1CC1` [Example 254, (3R)-3-{[(R)-{3-[(5-aminopyridin-2-yl)carbonyl]-4-chloro-2-fluorophenyl}(cyclopropyl)methyl]amino}butanamide], for which the IC50 under setting [2] stood at 1.8 µM and the IC50 under setting [3] lay in the range of 1 to 5 µM.

Turning to `CC[C@@H](NCCO)c1ccc(Cl)c(C(=O)c2cccnc2)c1F` [Example 163, 2-{[(1R)-1-{4-Chloro-2-fluoro-3-[(pyridin-3-yl)carbonyl]phenyl}propyl]amino}ethan-1-ol], the inhibition at 10 µM was 62%. Moreover, the IC50 under setting [1] is below 30 µM.

As to `CC[C@H](NCCCO)c1ccc(Cl)c(C(=O)c2ccccc2)c1F` [Example 182, 3-{[(1S)-1-(3-benzoyl-4-chloro-2-fluorophenyl)propyl]-amino}propan-1-ol], under setting [2], the IC50 was found to be 0.038 µM.

Turning to `CC[C@@H](N[C@H](C)CC(N)=O)c1ccc(Cl)c(C(=O)c2ccncc2)c1F` [Example 107, (3R)-3-{[(1R)-1-{4-chloro-2-fluoro-3-[(pyridin-4-yl)carbonyl]phenyl}propyl]-amino}butanamide], the IC50 reads like this: under setting [2], 1.1 µM; under setting [3], 1 to 5 µM.

On to `C[C@H](CC(N)=O)N[C@@H](c1ccc(Cl)c(C(=O)c2ccccc2)c1F)C1CC1` [Example 112, (3R)-3-{[(R)-(3-benzoyl-4-chloro-2-fluorophenyl)(cyclopropyl)-methyl]amino}butanamide], for which the IC50 under setting [2] worked out at 0.62 µM.

`CC[C@H](NC(=O)C1=CCCNC1)c1ccc(Cl)c(C(=O)c2cccnc2)c1F` [Example 287, N-[(1S)-1-{4-chloro-2-fluoro-3-[(pyridin-3-yl)carbonyl]phenyl}propyl]-1,2,5,6-tetrahydropyridine-3-carboxamide]: the IC50 reads like this: under setting [2], 0.14 µM; under setting [3], below 1 µM.

For `CC[C@@H](N[C@@H](C)CC(N)=O)c1ccc(Cl)c(C(=O)c2ccc(OC)c(C#N)c2)c1F` [Example 215, (3S)-3-{[(1R)-1-{4-chloro-3-[(3-cyano-4-methoxyphenyl)carbonyl]-2-fluorophenyl}propyl]amino} butanamide], the IC50 is 1.2 µM under setting [2] and 1 to 5 µM under setting [3].

Where the note is “@ 30 uM”, `CC[C@@H](N[C@H](C)CC(N)=O)c1ccc(Cl)c(C(=O)c2ccccn2)c1F` [Example 105, (3R)-3-{[(1R)-1-{4-chloro-2-fluoro-3-[(pyridin-2-yl)carbonyl]phenyl}propyl]amino}butanamide] had an inhibition at 30 µM of 57%. Also, the IC50 under setting [1] was below 30 µM.

Regarding `CCC(NC1(C(N)=O)CC1)c1ccc(Cl)c(C(=O)c2ccccc2)c1F` (stereo not drawn) [Example 184, 1-[1-(3-Benzoyl-4-chloro-2-fluorophenyl)-propylamino]-cyclopropanecarboxylic acid amide.HCl], the inhibition at 10 µM came to 22%.

Take `CC[C@@H](N[C@@H]1CCOC1)c1ccc(Cl)c(C(=O)c2cccnc2)c1F` [Example 292, (3R)-N-[(1R)-1-{4-chloro-2-fluoro-3-[(pyridin-3-yl)carbonyl]phenyl}propyl] oxolan-3-amine]: the inhibition at 10 µM amounted to 4%.

`CC[C@@H](NCc1cn[nH]c1)c1ccc(Cl)c(C(=O)c2cccnc2)c1F` [Example 299, [(1R)-1-{4-chloro-2-fluoro-3-[(pyridin-3-yl)carbonyl]phenyl}propyl] (1H-pyrazol-4-ylmethyl)amine] showed an inhibition at 10 µM of 32%.

On to `CC[C@@H](N)c1ccc(Cl)c(C(=O)c2cc[n+]([O-])cc2)c1F` [Example 42, [3-((R)-1-Amino-propyl)-6-chloro-2-fluoro-phenyl]-(1-oxy-pyridin-4-yl)-methanone], for which the IC50 under setting [2] amounted to 0.53 µM and the IC50 under setting [3] was below 1 µM.

With `CC[C@@H](N)c1ccc(Cl)c(C(=O)c2cncc(OC)c2)c1F` [Example 17, (1R)-1-{4-chloro-2-fluoro-3-[(5-methoxypyridin-3-yl)carbonyl]phenyl}propan-1-amine], the inhibition at 100 µM (@ 100 uM) is 65%.

Take `CC[C@@H](N[C@H](C)CC(N)=O)c1ccc(C)c(C(=O)c2ccccc2)c1F` [Example 151, (3R)-3-{[(1R)-1-(3-benzoyl-2-fluoro-4-methylphenyl)propyl]amino}butanamide]: the IC50 under setting [2] was 0.49 µM.
